Laboratory results as given in patent publication US20250195521A1 (Revolution Medicines, Inc., priority 2020, published 2025).
Read-outs that look alike come from different tables or passages of the source.

How the values were obtained:
AsPC-1 (K-Ras G12D) = test: Potency assay: pERK; assay type: cell-based, human; conditions: Homo sapiens, ASPC1; AsPC-1 KRAS G12D; read-out: pERK EC50
Experimental: The purpose of this assay is to measure the ability of test compounds to inhibit K-Ras in cells. […] This procedure measures a decrease in cellular pERK in response to test compounds. The procedure described below in NCI-H358 cells is applicable to K-Ras G12C.
NCI-H358 cells were grown and maintained using media and procedures recommended by the ATCC. On the day prior to compound addition, cells were plated in 384-well cell culture plates (40 μl/well) and grown overnight in a 37° C., 5% CO2 incubator. Test compounds were prepared in 10, 3-fold dilutions in DMSO, with a high concentration of 10 mM. On the day of assay, 40 nL of test compound was added to each well of cell culture plate using an Echo550 liquid handler (LabCyte®). Concentrations of test compound were tested in duplicate. After compound addition, cells were incubated 4 hours at 37° C., 5% CO2. Following incubation, culture medium was removed and cells were washed once with phosphate buffered saline.
In some experiments, cellular pERK level was determined using the AlphaLISA SureFire Ultra p-ERK1/2 Assay Kit (PerkinElmer). Cells were lysed in 25 μL lysis buffer, with shaking at 600 RPM at room temperature. Lysate (10 μL) was transferred to a 384-well Opti-plate (PerkinElmer) and 5 μL acceptor mix was added. After a 2-hour incubation in the dark, 5 μL donor mix was added, plate was sealed, and incubated 2 hours at room temperature. Signal was read on an Envision plate reader (PerkinElmer) using standard AlphaLISA settings. Analysis of raw data was carried out in Excel (Microsoft) and Prism (GraphPad). Signal was plotted vs. the decadal logarithm of compound concentration, and IC50 was determined by fitting a 4-parameter sigmoidal concentration response model.
In other experiments, cellular pERK was determined by In-Cell Western. Following compound treatment, cells were washed twice with 200 μL tris buffered saline (TBS) and fixed for 15 minutes with 150 μL 4% paraformaldehyde in TBS. Fixed cells were washed 4 times for 5 minutes with TBS containing 0.1% Triton X-100 (TBST) and then blocked with 100 μL Odyssey blocking buffer (LI-COR) for 60 minutes at room temperature. Primary antibody (PERK, CST-4370, Cell Signaling Technology) was diluted 1:200 in blocking buffer, and 50 μL was added to each well and incubated overnight at 4° C. Cells were washed 4 times for 5 minutes with TBST. Secondary antibody (IR-800CW rabbit, LI-COR, diluted 1:800) and DNA stain DRAQ5 (LI-COR, diluted 1:2000) were added and incubated 1-2 hours at room temperature. Cells were washed 4 times for 5 minutes with TBST. Plates were scanned on a Li—COR Odyssey CLx Imager. Analysis of raw data was carried out in Excel (Microsoft) and Prism (GraphPad). Signal was plotted vs. the decadal logarithm of compound concentration, and IC50 was determined by fitting a 4-parameter sigmoidal concentration response model.

[1] = test system: Capan-1 cells (K-Ras G12V); test: CellTiter-Glo cell viability, Capan-1; assay type: cell-based, human; conditions: Homo sapiens, CAPAN-1, 120 h, read-out: Capan-1 Cell Viability IC50
Summary of the method: (§1)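 Viability is read as luminescence after five days of compound exposure, with plates first equilibrated to room temperature for roughly 30 minutes. Each signal is expressed as a percentage of the mean DMSO control, and curves are fitted by four-parameter logistic regression.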

[2] = test system: K-Ras G12C (NCI-H358 cells); test: Potency assay: pERK in NCI-H358 cells; assay type: cell-based, human; conditions: Homo sapiens, read-out: pERK EC50 (H358 KRAS G12C)
Summary of the method: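 Cells plated the day before were exposed for 4 h at 37° C, 5% CO2 to a 10-point, 3-fold DMSO dilution series (10 mM top stock), in duplicate. Phospho-ERK was read by AlphaLISA SureFire Ultra or by In-Cell Western with DRAQ5 DNA stain, and IC50 came from a 4-parameter sigmoidal fit.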

KRAS G13D = KRAS G13D (Homo sapiens (Human), UniProt P01116+P62937, G13D); test: Ras-Raf disruption/FRET/MOA assay (BRAF RBD, Cyclophilin A); assay type: biochemical; conditions: read-out: KRAS G13D FRET data IC50
Summary of the method: (§2)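 Ras-GMPPNP (12.5 nM), BRAF RBD (50 nM) and 25 μM Cyclophilin A were incubated with compound for 3 h at 25° C, then detected 1.5 h with anti-His Eu and anti-GST APC; IC50 values follow from the reduced TR-FRET ratio.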

KRAS G12D = KRAS G12D (Homo sapiens (Human), UniProt P01116+P62937, G12D); test: as above; assay type: biochemical; conditions: read-out: KRAS G12D FRET IC50
Summary of the method: as §2

NRAS G12C = NRAS G12C (Homo sapiens (Human), UniProt P01111+P62937, G12C); test: as above; assay type: biochemical; conditions: read-out: NRAS G12C FRET data IC50
Summary of the method: (§3)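 Measured: compound-facilitated Cyclophilin A:Ras complex blocking RAF RBD binding. Conditions: 12.5 nM Ras-GMPPNP, 50 nM BRAF RBD, 25 μM CypA, 3 h plus 1.5 h detection. Output: IC50 from TR-FRET ratio.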

KRAS WT = KRAS WT (Homo sapiens (Human), UniProt P01116+P62937); test: as above; assay type: biochemical; conditions: read-out: KRAS WT FRET data IC50
Summary of the method: as §2

KRAS G12S = KRAS G12S (Homo sapiens (Human), UniProt P01116+P62937, G12S); test: as above; assay type: biochemical; conditions: read-out: KRAS G12S FRET IC50
Summary of the method: as §2

KRAS G12C = KRAS G12C (Homo sapiens (Human), UniProt P01116+P62937, G12C); test: as above; assay type: biochemical; conditions: read-out: KRAS G12C FRET IC50
Summary of the method: as §2

NRAS WT = NRAS WT (Homo sapiens (Human), UniProt P01111+P62937); test: as above; assay type: biochemical
Summary of the method: as §3

KRAS Q61H = KRAS Q61H (Homo sapiens (Human), UniProt P01116+P62937, Q61H); test: as above; assay type: biochemical
Summary of the method: as §2

KRAS G12V = KRAS G12V (Homo sapiens (Human), UniProt P01116+P62937, G12V); test: as above; assay type: biochemical; conditions: read-out: KRAS G12V FRET IC50
Summary of the method: as §2

NRAS Q61R = NRAS Q61R (Homo sapiens (Human), UniProt P01111+P62937, Q61R); test: as above; assay type: biochemical
Summary of the method: as §3

KRAS G13C = KRAS G13C (Homo sapiens (Human), UniProt P01116+P62937, G13C); test: as above; assay type: biochemical; conditions: read-out: KRAS G13C FRET IC50
Summary of the method: as §2

[3] = test system: NCI-H358 cells (K-Ras G12C); test: CellTiter-Glo cell viability, NCI-H358; assay type: cell-based, human; conditions: Homo sapiens, NCI-H358, 120 h, read-out: H358 Cell Viability IC50
Summary of the method: as §1

Chain of KRAS G13C (P01116 other isoform, or with tags, fused parts or gaps G13C): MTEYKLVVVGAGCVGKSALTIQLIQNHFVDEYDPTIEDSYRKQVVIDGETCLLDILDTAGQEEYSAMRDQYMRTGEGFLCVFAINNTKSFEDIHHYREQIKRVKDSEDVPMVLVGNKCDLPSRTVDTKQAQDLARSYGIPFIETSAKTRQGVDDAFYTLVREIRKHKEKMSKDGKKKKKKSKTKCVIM
Chain of KRAS G13C (P62937 whole entry): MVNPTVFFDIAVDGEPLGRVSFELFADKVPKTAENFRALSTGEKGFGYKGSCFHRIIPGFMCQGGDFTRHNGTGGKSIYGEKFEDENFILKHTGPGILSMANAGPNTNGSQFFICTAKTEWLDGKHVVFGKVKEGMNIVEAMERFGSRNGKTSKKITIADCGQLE
Chain of NRAS G12C (P01111 whole entry G12C): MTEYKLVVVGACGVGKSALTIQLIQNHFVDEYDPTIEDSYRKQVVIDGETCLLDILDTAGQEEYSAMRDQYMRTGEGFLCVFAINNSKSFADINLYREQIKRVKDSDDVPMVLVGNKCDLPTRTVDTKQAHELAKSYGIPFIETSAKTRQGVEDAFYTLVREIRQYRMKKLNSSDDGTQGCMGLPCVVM
Chain of NRAS G12C (P62937 whole entry): as the sequence (P62937 whole entry) above
Chain of KRAS G13D (P01116 other isoform, or with tags, fused parts or gaps G13D): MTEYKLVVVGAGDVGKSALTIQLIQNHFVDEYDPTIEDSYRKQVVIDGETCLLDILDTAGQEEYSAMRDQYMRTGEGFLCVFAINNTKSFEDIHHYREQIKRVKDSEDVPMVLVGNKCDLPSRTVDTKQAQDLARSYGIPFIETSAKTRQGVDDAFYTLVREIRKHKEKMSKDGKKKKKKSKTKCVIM
Chain of KRAS G13D (P62937 whole entry): as the sequence (P62937 whole entry) above
Chain of KRAS G12D (P01116 other isoform, or with tags, fused parts or gaps G12D): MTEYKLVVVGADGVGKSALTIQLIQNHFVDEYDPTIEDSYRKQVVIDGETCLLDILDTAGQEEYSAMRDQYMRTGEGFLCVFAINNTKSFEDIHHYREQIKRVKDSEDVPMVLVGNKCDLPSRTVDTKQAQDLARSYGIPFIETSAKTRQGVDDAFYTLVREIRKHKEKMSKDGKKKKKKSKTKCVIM
Chain of KRAS G12D (P62937 whole entry): as the sequence (P62937 whole entry) above
Chain of NRAS WT (P01111 whole entry): as the sequence (P01111 whole entry G12C) above, with C12G counted along it
Chain of NRAS WT (P62937 whole entry): as the sequence (P62937 whole entry) above
Chain of KRAS G12V (P01116 other isoform, or with tags, fused parts or gaps G12V): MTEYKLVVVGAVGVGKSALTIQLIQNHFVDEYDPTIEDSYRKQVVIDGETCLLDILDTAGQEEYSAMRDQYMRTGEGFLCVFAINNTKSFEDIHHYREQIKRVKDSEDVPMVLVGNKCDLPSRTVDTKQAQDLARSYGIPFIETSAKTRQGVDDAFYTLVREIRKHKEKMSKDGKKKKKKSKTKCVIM
Chain of KRAS G12V (P62937 whole entry): as the sequence (P62937 whole entry) above
Chain of NRAS Q61R (P01111 whole entry Q61R): as the sequence (P01111 whole entry G12C) above, with C12G, Q61R counted along it
Chain of NRAS Q61R (P62937 whole entry): as the sequence (P62937 whole entry) above
Chain of KRAS WT (P01116 other isoform, or with tags, fused parts or gaps): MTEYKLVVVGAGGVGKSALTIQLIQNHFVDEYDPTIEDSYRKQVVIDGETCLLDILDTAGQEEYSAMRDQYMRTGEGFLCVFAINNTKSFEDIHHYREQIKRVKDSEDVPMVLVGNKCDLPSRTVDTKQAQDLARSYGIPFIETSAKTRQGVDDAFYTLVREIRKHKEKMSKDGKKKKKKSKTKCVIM
Chain of KRAS WT (P62937 whole entry): as the sequence (P62937 whole entry) above
Chain of KRAS G12S (P01116 other isoform, or with tags, fused parts or gaps G12S): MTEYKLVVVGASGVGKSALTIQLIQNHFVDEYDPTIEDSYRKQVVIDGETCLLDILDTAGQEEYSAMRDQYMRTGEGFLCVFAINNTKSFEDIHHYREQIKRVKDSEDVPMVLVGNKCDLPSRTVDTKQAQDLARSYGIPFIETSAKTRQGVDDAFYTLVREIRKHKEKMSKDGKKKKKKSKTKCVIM
Chain of KRAS G12S (P62937 whole entry): as the sequence (P62937 whole entry) above
Chain of KRAS G12C (P01116-2 other isoform, or with tags, fused parts or gaps G12C): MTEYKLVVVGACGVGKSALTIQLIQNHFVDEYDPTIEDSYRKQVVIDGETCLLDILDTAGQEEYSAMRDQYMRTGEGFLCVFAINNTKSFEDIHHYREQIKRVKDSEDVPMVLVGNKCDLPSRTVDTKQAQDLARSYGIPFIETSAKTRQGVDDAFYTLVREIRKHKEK
Chain of KRAS G12C (P62937 whole entry): as the sequence (P62937 whole entry) above
Chain of KRAS Q61H (P01116 other isoform, or with tags, fused parts or gaps Q61H): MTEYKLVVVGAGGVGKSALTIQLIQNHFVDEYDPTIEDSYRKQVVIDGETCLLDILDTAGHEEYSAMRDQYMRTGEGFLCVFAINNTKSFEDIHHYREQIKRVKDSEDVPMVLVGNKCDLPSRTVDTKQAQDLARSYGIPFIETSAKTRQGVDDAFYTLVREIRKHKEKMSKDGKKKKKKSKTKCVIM
Chain of KRAS Q61H (P62937 whole entry): as the sequence (P62937 whole entry) above

Structure (SMILES) | EC50 (AsPC-1 (K-Ras G12D)) [nM] | IC50 ([1]; K-Ras G12V, 5-day treatment) [nM] | EC50 ([2]; NCI-H358 cells, 4 hours) [nM] | IC50 (KRAS G13D) [nM] | IC50 (KRAS G12D) [nM] | IC50 (NRAS G12C) [nM] | IC50 (KRAS WT) [nM] | IC50 (KRAS G12S) [nM] | IC50 (KRAS G12C) [nM] | IC50 (NRAS WT) [nM] | IC50 (KRAS Q61H) [nM] | IC50 (KRAS G12V) [nM] | IC50 (NRAS Q61R) [nM] | IC50 (KRAS G13C) [nM] | IC50 ([3]; K-Ras G12C, 5-day treatment) [nM] | IC50 [1] [nM] | EC50 ([2]; NCI-H358, 4 h) [nM] | IC50 [3] [nM]
CCn1c(-c2cccnc2[C@H](C)OC)c2c3cc(ccc31)-c1cc(O)cc(c1)C[C@H](NC(=O)[C@H](C(C)C)N(C)C(=O)N1CCN(C(=O)[C@@H]3CN3)CC1)C(=O)N1CCC[C@H](N1)C(=O)OCC(C)(C)C2 (atropisomer, axis not shown) [Example 197] | < 5000 |  |  |  |  |  |  |  |  |  |  |  |  |  |  |  |  | 
CCn1c(-c2cccnc2[C@H](C)OC)c2c3cc(ccc31)-c1csc(n1)C[C@H](NC(=O)[C@H](C(C)C)N(C)C(=O)N1CC3(CC(N(C)C4COC4)C3)C1)C(=O)N1CCC[C@H](N1)C(=O)OCC(C)(C)C2 [Compound A511] |  | 10 to 100 | < 5000 | 1000 to 10000 | 1000 to 10000 | 100 to 1000 | 100 to 1000 | 100 to 1000 | 100 to 1000 | 100 to 1000 | 100 to 1000 | 100 to 1000 | 100 to 1000 | 100 to 1000 | 10 to 100 |  |  | 
CCn1c(-c2cccnc2[C@H](C)OC)c2c3cc(ccc31)-c1csc(n1)C[C@H](NC(=O)[C@H](C(C)C)N(C)C(=O)N1C3COCC1C3)C(=O)N1CCC[C@H](N1)C(=O)OCC(C)(C)C2 [Compound A540] |  |  |  | 100 to 1000 | 1000 to 10000 | 10 to 100 | 100 to 1000 | 100 to 1000 | 10 to 100 | 100 to 1000 | 10 to 100 | 100 to 1000 | 100 to 1000 | 100 to 1000 |  | 10 to 100 | < 5000 | 10 to 100
CCn1c(-c2cccnc2[C@H](C)OC)c2c3cc(ccc31)-c1csc(n1)C[C@H](NC(=O)[C@H](C(C)C)N(C)C(=O)N1C[C@H](N)[C@@H](O)C1)C(=O)N1CCC[C@H](N1)C(=O)OCC(C)(C)C2 [Compound A581] |  | 1000 to 10000 | < 5000 | 100 to 1000 | 100 to 1000 | 10 to 100 | 100 to 1000 | 100 to 1000 | 10 to 100 | 100 to 1000 | 10 to 100 | 100 to 1000 | 100 to 1000 | 100 to 1000 | 100 to 1000 |  |  | 
CCn1c(-c2cccnc2[C@H](C)OC)c2c3cc(ccc31)-c1csc(n1)C[C@H](NC(=O)[C@H](C(C)C)N(C)C(=O)N1CCO[C@H](c3ccccc3)C1)C(=O)N1CCC[C@H](N1)C(=O)OCC(C)(C)C2 [Compound A582] |  | 100 to 1000 | < 5000 | 100 to 1000 | 100 to 1000 | 10 to 100 | 100 to 1000 | 100 to 1000 | 10 to 100 | 100 to 1000 | 10 to 100 | 100 to 1000 | 100 to 1000 | 100 to 1000 | 10 to 100 |  |  | 
